Data reported in patent US20230100838A1 (Revolution Medicines, Inc., priority 2019, published 2023).

Legend:
Type in all cases: binding
K-Ras G12S = K-Ras G12S (Homo sapiens, UniProt P01116, G12S); experiment: K-Ras G12S cross-linking assay (comparable procedure, conjugate formation, TOF mass spectrometry); conditions: Table 5, percent covalently modified K-Ras by MS
Summary of the method: (§1)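 5 μM protein (final, from 50 μM) in HEPES/NaCl/MgCl2 buffer pH 7.4 with compound typically at 2, 10 and 25 μM, room temperature, 1 and 24 h endpoints; formic acid quench. Intact-protein LC–TOF MS; percent modification is covalent adduct peak height over total K-Ras peak height.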

[1] = molecular target: T1, GDP-loaded K-Ras (1-169) C51S, C80L, C118S (Homo sapiens, UniProt P01116, C118S/C51S/C80L); experiment: K-Ras WT (GDP) cross-linking assay (conjugate formation, TOF mass spectrometry); conditions: Table 5; percent covalently modified K-Ras by MS; room temperature; typical compound conc. 2, 10, 25 μM, endpoints 1 and 24 h
T1 construct: GDP-loaded K-Ras (1-169) C51S, C80L, C118S
Summary of the method: as §1

[2] = molecular target: T2, GDP-loaded K-Ras (1-169) G12D, C51S, C80L, C118S (Homo sapiens, UniProt P01116, C118S/C51S/C80L/G12D); experiment: K-Ras G12D(GDP) cross-linking assay (conjugate formation, TOF mass spectrometry); conditions: Table 5; percent covalently modified K-Ras by MS; room temperature; typical compound conc. 2, 10, 25 μM, endpoints 1 and 24 h
T2 construct: GDP-loaded K-Ras (1-169) G12D, C51S, C80L, C118S
Summary of the method: as §1

Structure (SMILES) | G12S x-linking (%) (K-Ras G12S) | WT x-linking (%) [1] | G12D x-linking (%) [2]
Cc1cccc2cccc(N3CCc4c(nc(OC[C@@H]5CCCN5C)nc4N4CCC(N=C=NCCCN5CCOCC5)CC4)C3)c12 [Example 85, N-(1-(7-(8-methylnaphthalen-1-yl)-2-(((S)-1-methylpyrrolidin-2-yl)methoxy)-5,6,7,8-tetrahydropyrido[3,4-d]pyrimidin-4-yl)piperidin-4-yl)-N-(3-morpholinopropyl)methanediimine] | ++ (10 < x ≤ 100) | ++ (20 < x ≤ 100) | +++ (40 < x ≤ 100)
Cc1cccc2cccc(N3CCc4c(nc(OC[C@@H]5CCCN5C)nc4N4CCC(N=C=NCc5ccon5)CC4)C3)c12 [Example 86, N-(isoxazol-3-ylmethyl)-N-(1-(7-(8-methylnaphthalen-1-yl)-2-(((S)-1-methylpyrrolidin-2-yl)methoxy)-5,6,7,8-tetrahydropyrido[3,4-d]pyrimidin-4-yl)piperidin-4-yl)methanediimine] | ++ (10 < x ≤ 100) | ++ (20 < x ≤ 100) | +++ (40 < x ≤ 100)
Cc1cccc2cccc(N3CCc4c(nc(OC[C@@H]5CCCN5C)nc4N4CCC(N=C=NCCn5ccnc5)CC4)C3)c12 [Example 87, N-(2-(1H-imidazol-1-yl)ethyl)-N-(1-(7-(8-methylnaphthalen-1-yl)-2-(((S)-1-methylpyrrolidin-2-yl)methoxy)-5,6,7,8-tetrahydropyrido[3,4-d]pyrimidin-4-yl)piperidin-4-yl)methanediimine] | ++ (10 < x ≤ 100) | ++ (20 < x ≤ 100) | +++ (40 < x ≤ 100)
Cc1cccc2cccc(N3CCc4c(nc(OC[C@@H]5CCCN5C)nc4N4CCC(N=C=NCCCn5ccnc5)CC4)C3)c12 [Example 88, N-(3-(1H-imidazol-1-yl)propyl)-N-(1-(7-(8-methylnaphthalen-1-yl)-2-(((S)-1-methylpyrrolidin-2-yl)methoxy)-5,6,7,8-tetrahydropyrido[3,4-d]pyrimidin-4-yl)piperidin-4-yl)methanediimine] | ++ (10 < x ≤ 100) | ++ (20 < x ≤ 100) | +++ (40 < x ≤ 100)
Cc1cccc2cccc(N3CCc4c(nc(OC[C@@H]5CCCN5C)nc4N4CCC(N=C=NCCN(C)c5ccccc5)CC4)C3)c12 [Example 89, N-methyl-N-(2-((((1-(7-(8-methylnaphthalen-1-yl)-2-(((S)-1-methylpyrrolidin-2-yl)methoxy)-5,6,7,8-tetrahydropyrido[3,4-d]pyrimidin-4-yl)piperidin-4-yl)imino)methylene)amino)ethyl)aniline] | + (0 < x ≤ 10) | + (0 < x ≤ 20) | + (0 < x ≤ 20)
Cc1cccc2cccc(N3CCc4c(nc(OC[C@@H]5CCCN5C)nc4N4CCC(N=C=NCCCN(C)c5ccccc5)CC4)C3)c12 [Example 90, N-methyl-N-(3-((((1-(7-(8-methylnaphthalen-1-yl)-2-(((S)-1-methylpyrrolidin-2-yl)methoxy)-5,6,7,8-tetrahydropyrido[3,4-d]pyrimidin-4-yl)piperidin-4-yl)imino)methylene)amino)propyl)aniline] | + (0 < x ≤ 10) | + (0 < x ≤ 20) | + (0 < x ≤ 20)
Cc1cccc2cccc(N3CCc4c(nc(OC[C@@H]5CCCN5C)nc4N4CCC(N=C=NCCCN(C)c5ccccn5)CC4)C3)c12 [Example 91, N-methyl-N-(3-((((1-(7-(8-methylnaphthalen-1-yl)-2-(((S)-1-methylpyrrolidin-2-yl)methoxy)-5,6,7,8-tetrahydropyrido[3,4-d]pyrimidin-4-yl)piperidin-4-yl)imino)methylene)amino)propyl)pyridin-2-amine] | + (0 < x ≤ 10) | + (0 < x ≤ 20) | ++ (20 < x ≤ 40)
Cc1cccc2cccc(N3CCc4c(nc(OC[C@@H]5CCCN5C)nc4N4CCC(N=C=NCCN(C)c5ccncn5)CC4)C3)c12 [Example 92, N-methyl-N-(2-((((1-(7-(8-methylnaphthalen-1-yl)-2-(((S)-1-methylpyrrolidin-2-yl)methoxy)-5,6,7,8-tetrahydropyrido[3,4-d]pyrimidin-4-yl)piperidin-4-yl)imino)methylene)amino)ethyl)pyrimidin-4-amine] | ++ (10 < x ≤ 100) | ++ (20 < x ≤ 100) | +++ (40 < x ≤ 100)
CSCCCN=C=NC1CCN(c2nc(OC[C@@H]3CCCN3C)nc3c2CCN(c2cccc4cccc(C)c24)C3)CC1 [Example 93, N-(1-(7-(8-methylnaphthalen-1-yl)-2-(((S)-1-methylpyrrolidin-2-yl)methoxy)-5,6,7,8-tetrahydropyrido[3,4-d]pyrimidin-4-yl)piperidin-4-yl)-N-(3-(methylthio)propyl)methanediimine] | + (0 < x ≤ 10) | + (0 < x ≤ 20) | ++ (20 < x ≤ 40)
Cc1cccc2cccc(N3CCc4c(nc(OC[C@@H]5CCCN5C)nc4N4CCC(N=C=NCc5cccs5)CC4)C3)c12 [Example 94, N-(1-(7-(8-methylnaphthalen-1-yl)-2-(((S)-1-methylpyrrolidin-2-yl)methoxy)-5,6,7,8-tetrahydropyrido[3,4-d]pyrimidin-4-yl)piperidin-4-yl)-N-(thiophen-2-ylmethyl)methanediimine] | + (0 < x ≤ 10) | + (0 < x ≤ 20) | + (0 < x ≤ 20)
Cc1cccc2cccc(N3CCc4c(nc(OC[C@@H]5CCCN5C)nc4N4CCC(N=C=NCCc5cccs5)CC4)C3)c12 [Example 95, N-(1-(7-(8-methylnaphthalen-1-yl)-2-(((S)-1-methylpyrrolidin-2-yl)methoxy)-5,6,7,8-tetrahydropyrido[3,4-d]pyrimidin-4-yl)piperidin-4-yl)-N-(2-(thiophen-2-yl)ethyl)methanediimine] | + (0 < x ≤ 10) | + (0 < x ≤ 20) | + (0 < x ≤ 20)
